Test results reported in patent publication US20030180339A1, “Topical treatment of skin” (priority 2002, published 2003).

System: sebum
Assay: Oil reduction potential of moisturising gels, blinded randomised study in India, Sebumeter SM810 (Example 34)
Format: in vivo, human
Procedure: A study was conducted on 37 normal volunteers in India to determine the oil reduction potential of moisturising gels containing sebum reduction agents.
This study was a blinded, randomised study comparing 2 test gels (containing Cedar wood and Poplar bud) with standard preparation (containing Elubiol).
Women volunteers between the age of 17 and 19 years were screened by measuring sebumeter readings of the left forehead using a Sebumeter SM810. Those volunteers had subumeter reading of […] or above.
These volunteers were instructed to avoid any other face cream, face wash or any other cosmetics during the 8 weeks of the study. After recruitment, volunteers were instructed to use the face wash for the first 2 weeks. This period was considered as the conditioning period.
A baseline sebumeter reading was taken at the end of the conditioning period on 4 sites i.e. left forehead, left cheek, right forehead, and right cheek. Tubes containing the test medicines (which were coded and randomly allocated to each site) were dispensed to the volunteers. Each volunteer was given two test gels, one for left side of the face and the other for right side of the face. […]
The volunteer was requested to make a note of application of face wash and face cream daily on the given diary sheets. Sebumeter readings were taken 3 weeks and 6 weeks later.

## CCOC(=O)N1CCN(c2ccc(OC[C@H]3CO[C@](Cn4ccnc4)(c4ccc(Cl)cc4Cl)O3)cc2)CC1 [Elubiol, dichlorophenyl-imidazoltioxolan]
At 6 weeks
  effect on sebumeter readings, comparison between treatments: improved
Gel twice a day
  fall in the sebum reading at 6 weeks as compared to 3 weeks: significantly greater fall
